Reference: a melting point compilation (Tetko et al.; mined from patent text by program, amines drawn as free bases though some values may be those of a salt)

Row | melting point | SMILES
1 | 196 to 198 °C | COC(=O)c1cc2c(cc(C=O)c3ccccc32)s1
2 | 182 °C | CCONC(=O)C(=O)NN
3 | 153 to 155 °C | CC(=O)OCCN1CCN(C(=O)Cn2c(=O)sc3ncc(Cl)cc32)CC1
4 | 29.5 to 30 °C | C#CCCCCCCNC(=O)C(F)(F)F
5 | 192 to 195 °C | CS(=O)(=O)CCCCCn1c(C(F)(F)F)nc2c(N)nc3ccccc3c21
6 | 143 to 145 °C | C=CCc1ccc(C(NC(C)=O)C(=O)OC)cc1O (stereo not given)
7 | 175 to 176 °C | Clc1ccc2c(c1)C(n1ccnc1)c1ccccc1CS2 (stereo not given)
8 | 174 to 175 °C | CNC(=O)N(C)c1nc2c(s1)C(=O)CC(C)(C)C2
9 | 100 to 101 °C | Nc1ccc(CO)cc1[N+](=O)[O-]
10 | 133 to 137 °C | OCCC(=C(c1ccccc1)c1ccc(OCCBr)cc1)c1ccccc1
11 | 173 to 174 °C | CN(C)CCOc1ccc(Nc2ncc3c(n2)N(C)C(=O)N(c2c(Cl)cccc2Cl)C3)cc1
12 | 180 to 181 °C | CCOC(=O)c1cn(NCC=O)c2c(OCc3ccccc3)c(F)c(F)cc2c1=O
13 | 86 to 88 °C | Nc1c([N+](=O)[O-])cc(F)c(F)c1Cl
14 | 188 to 189 °C | CCc1noc(NC(=O)N2CCN(c3ccnc(-c4cccc(F)c4F)n3)CC2)c1C
15 | 178 to 180 °C | COc1ccc(P(=O)(c2ccccc2)c2ccccc2)c(I)c1OC
16 | 162 to 164 °C | COc1ccc(CCNC(=O)CCCCC(=O)NC2Cc3ccccc3C2)cc1OC
17 | 132 °C | COC(=O)CCc1c(CCO)ccc2c1CCC(NS(=O)(=O)c1ccc(Cl)cc1)C2 (stereo not given)
18 | 120 to 123 °C | O=C(Nc1ccc(N2CCN(C(=O)Nc3ccc(OCCO)cc3C(F)(F)F)CC2)cc1)Nc1nc(C2CC2)cs1
19 | 251 °C | CC(=O)NCc1ccc(-c2csc(NC(C)=O)n2)s1
20 | 229 to 231 °C | O=C1c2cc3nnn(Cc4cnccn4)c(=O)c3cc2OC2CCCN12 (stereo not given)
21 | 67.5 to 70 °C | Cc1c(Cl)nnc(Cl)c1Cl
22 | 99.5 to 100 °C | CC1(C)OC(c2ccccc2)CN1C(=O)C(Cl)Cl (stereo not given)
23 | 86 °C | CCN(CC)C(=O)Cc1cc(-c2ccccc2)nc2ccccc12
24 | 140 to 142 °C | C[C@]1(CN2CCN(C(=O)OCc3ccc(C(F)(F)F)cc3)CC2)Cn2cc([N+](=O)[O-])nc2O1

Row | melting point | SMILES
25 | 108 to 112 °C | O=C(O)Cc1ccc(OCCNC(=O)C2Cc3ccccc3N2S(=O)(=O)c2ccc(-c3cc(C(F)(F)F)ccc3Cl)cc2)c(Cl)c1 (stereo not given)
26 | 156 to 157 °C | CCOC(=O)c1csc(/C=C/c2cn(-c3ccccc3)nc2OCc2ccc(OCc3nc(-c4ccco4)oc3C)c(OC)c2)n1
27 | 316 to 319 °C | COc1ccc(-c2ccc(C#N)cn2)cc1-c1nc2cc(C#N)ccc2[nH]1
28 | 160 to 168 °C | O=C(O)c1cc2cc(Cl)ccc2nc1N[C@@H](CC1CCCCC1)C(=O)O
29 | 140 to 143 °C | Oc1ccc(-c2ccc(CCC(O)CCc3cccnc3)cc2)cc1 (stereo not given)
30 | 121 °C | CC(=O)Oc1ccc(C(=O)N2CCN(CC(C)(C)S)CC2)cc1
31 | 123 to 124 °C | Cc1ccc2c([N+](=O)[O-])c(Cl)ccc2n1
32 | 201 to 203 °C | CCOCc1nc2c(N)nc3ccccc3c2n1CCCC(=O)N1CCOCC1
33 | 210 to 212 °C | COc1ccc(C=CC(=O)c2cc(Oc3ccccc3)c(NS(C)(=O)=O)cc2O)cc1OC
34 | 142 to 143 °C | O=C1c2ccccc2C(=O)N1CCN1c2ccccc2N(Cc2ccccc2)C(=O)[C@H]2CCC[C@H]21 (relative stereo)
35 | > 270 °C | CC(C)(C)c1cc(-c2nnc(NC(N)=O)s2)cc(C(C)(C)C)c1O
36 | 113 to 115 °C | O=C(O)CCCCCNS(=O)(=O)c1ccccc1
37 | 124 to 126 °C | c1ccc(-c2cc3ccccc3s2)nc1
38 | 152 to 154 °C | CC(C)(C)c1cc(SCCC(=O)NC2CCC3CC2C3(C)C)cc(C(C)(C)C)c1O (stereo not given)
39 | 152 to 154 °C | Cc1cc(-n2cnnc2)ccc1N
40 | 96 °C | COc1cc(C(=O)NC=NC(=O)ON(c2ccc(C)c(NC(=O)c3ccc(C(=O)c4ccccc4)cc3)c2)C(C)(C)C)cc(OC)c1OC
41 | > 250 °C | Cc1ccc(-c2nc3cccnc3n2CC(=O)O)s1
42 | 94 to 97 °C | CC(C)OC(=O)C1Oc2ccccc2Cc2ccccc2O1
43 | 194 to 195 °C | Cc1nc2c3c(c(C(=O)N(C)CCO)cc2n1C)CCC1(Cc2ccccc2C1)N3
44 | 56 to 61 °C | CCCCOC(=O)C(=O)c1ccc2c(c1)C1(C)CCN(C)C1N2C (stereo not given)
45 | 177 to 179 °C | Cc1c(NC(=O)c2ccc(-c3ccc(F)cc3F)cc2)ccc2cc(CN3CCCC3)cnc12
46 | 211 to 212 °C | Cc1cc(C#N)sc1-c1ccc2c(c1)C(C)(C)OC(=S)N2
47 | 104 to 106 °C | COC(=O)COc1ccc(-c2ccc(C(=O)OCc3ccccc3)cc2)cc1-c1ccc2c(c1)C(C)(C)CCC2(C)C
48 | 84 to 89 °C | Cc1nnsc1C(=O)Nc1ccc(-n2nc(C(F)(F)F)cc2C2CC2)cc1

Row | melting point | SMILES
49 | 176 °C | Fc1ccc(Cn2c(NC3CCN(CCNC(=S)N4CCCCC4)CC3)nc3ccccc32)cc1
50 | 151 °C | CC(C)(O)c1ccc(C2CCNCC2)c(F)c1
51 | 115 to 116 °C | CCOC(=O)c1c(O)c2cc(F)ccc2c(=O)n1CC(C)(C)C
52 | 53 to 55 °C | COc1cccc(OCCCSCCC(=O)O)c1
53 | 97 to 98 °C | COc1cc(OCc2ccccc2)ccc1C(=O)c1cc(Cl)ccc1N
54 | 86.5 to 87.5 °C | CCC#CCCOc1cc(C=O)ccc1OC
55 | > 300 °C | O=C1NC(=O)c2nc3ccccc3cc21
56 | 219 to 220 °C | CC(C)CN1C(=O)C(C)(C)C(=O)Nc2ccc(C#N)cc21
57 | 75 to 76 °C | CC(C)(C)OC(=O)N1CCN(Cc2ccc(Cl)c(Cl)c2)CC1
58 | 206 to 210 °C | NS(=O)(=O)c1cc(CCNC(=O)c2cnc3ccccc3c2)ccc1OCCOCC(F)(F)F
59 | 140 to 142 °C | CC(C)(C)OC(=O)c1cc2cc(Cl)ccc2[nH]1
60 | 123 to 126 °C | Cn1nc(-c2cc(O)c(Cl)cc2F)c(Cl)c1C(F)(F)F
61 | 245 to 247 °C | Clc1ccc(-c2ccc(N3CCCN(c4ccc(-c5ccc(Cl)cc5)cn4)CC3)nc2)cc1
62 | 219 to 223 °C | CN(C)C(=O)C1Cc2ccc(N)cc2NC1=O (stereo not given)
63 | 109 to 110 °C | COC(=O)C(C)(Cc1c[nH]c2ccc(OC)cc12)[N+](=O)[O-] (racemic)
64 | 124 to 125 °C | CC(O)C(C)N=[N+]([O-])c1ccc(O)cc1 (stereo not given)
65 | 170 to 172 °C | Oc1cccc(Cc2n[nH]c3ccccc23)c1
66 | 41.5 to 43 °C | CCCCCCCCCCCCCCCCSCC(CNS(=O)(=O)CCCCl)COC (stereo not given)
67 | 157 to 160 °C | CC(CCCCN(C)c1ccccc1)NCC(O)c1ccc(O)c(C(N)=O)c1 (stereo not given)
68 | 244 to 246 °C | N#Cc1cnc2c(c1Nc1ccc(Cl)cc1Br)C=C1N=CN=C1C2
69 | 213 to 215 °C | CCOC(=O)C(=O)Nc1c([N+](=O)[O-])cc(Br)c2cccnc12
70 | 141 to 143 °C | Cc1cccc(C2(c3ccc(F)c(-c4ccc(NC(=O)NN5CCOCC5)cc4)c3)CNC(C(C)C)=N2)n1 (stereo not given)
71 | 310 to 312 °C | CNC(=O)c1ccc(C(=O)Nc2cccc(C3=NC(C)(C)Cc4cc(OC)c5c(c43)CC(C)(C)O5)c2)cc1
72 | 84 to 87 °C | CC(=O)c1cccc2c1Cc1ccccc1-2

Row | melting point | SMILES
73 | 213 to 214 °C | O=c1c(CCc2ccncc2)cc2cccnc2n1-c1cccc([N+](=O)[O-])c1
74 | 58 to 60 °C | COCC(=O)NCCC1CCCc2ccc(OC)cc21 (single isomer, unassigned; (-))
75 | 188 to 190 °C | C=CCC12CC(=O)N(C)C1(O)CCc1ccc(OCc3ccccc3)cc12 (stereo not given)
76 | 200 to 201 °C | Nc1ccc2nc(-c3ccccc3)sc2c1
77 | 240 to 244 °C | CCCn1c(COCC)nc2c(N)nc3ccc(OC4CCN(S(C)(=O)=O)CC4)cc3c21
78 | 94 to 95 °C | CN1CCN(c2ccc(S(=O)(=O)Oc3ccccc3)c(Cl)c2[N+](=O)[O-])CC1
79 | 218 to 220 °C | CC(=O)NC1Cc2ccc(NC(=O)c3ccccc3-c3ccc(F)cc3)cc2C1 (stereo not given)
80 | 154 to 155 °C | COc1cccc2c1nc(-c1c(F)cccc1F)n2Cc1c(F)cccc1F
81 | > 350 °C | NC(=O)Nc1ccc(/C=C/C(=O)O)cc1
82 | 237 to 242 °C | CS(=O)c1ncc2ccc(=O)[nH]c2n1 (stereo not given)
83 | 164 to 166 °C | Nc1sc2c(c1C(=O)c1ccc(Cl)cc1)CCNC2
84 | 114 to 117 °C | COc1ccc2c(c1)c(C1=C(c3cn(C)c4ccc(OC)cc34)C(=O)N(C)C1=O)cn2C
85 | 125 to 129 °C | Oc1ccc2nc(-c3ccc(O)c(F)c3)cc(C#Cc3ccccc3)c2c1
86 | 187 to 191 °C | CC12CCC3c4cc(OCC(F)(F)F)c(O)cc4C(=NO)CC3C1CCC2O (stereo not given)
87 | 36 to 38 °C | CCOc1cc(C(Cl)(Cl)Cl)cc(OC)n1
88 | 165 to 166 °C | COc1ccc(N2CCN(c3c(C)c(C)c4c(c3C)C(c3cccc5ccccc35)C(C)(C)O4)CC2)cc1 (stereo not given)
89 | 206 to 208 °C | COc1cc2oc3ccc(C#N)cc3c2cc1F
90 | 168 to 170 °C | CCCc1nc(C(C)(C)O)c(C(=O)OC2OC(=O)c3ccccc32)n1Cc1ccc(-c2ccccc2-c2nnn[nH]2)cc1 (stereo not given)
91 | 203 °C | O=C(NC(=O)c1c(F)cccc1F)Nc1cc(Br)c(Br)cc1C(F)(F)F
92 | 122 to 124 °C | Cc1ccnc(C)c1NC(=O)NCCCl
93 | 54 to 55 °C | C=CCCCCCCCCOc1ccc(O)cc1
94 | 187 to 188 °C | CCOC(=O)C1=C(CO)NC=C(C(=O)OC)C1c1ccccc1Cl (stereo not given)
95 | 245 to 247 °C | CSc1nc(-c2ccc(S(C)(=O)=O)cc2)n(-c2ccc(C)c(C)c2)c(=O)c1C#N

Row | SMILES | melting point
96 | O=C(CCl)Cc1ccc(Cl)cc1 | 40.5 to 45.5 °C
97 | Cc1cccc2c1C(=O)N(C)Cc1c(-c3noc(C4CC4)n3)ncn1-2 | 200 °C
98 | COc1ccc(NC(=O)C2C(=O)N(C)C(=S)N(C)C2=O)cc1Oc1ccc(C(F)(F)F)cc1Cl | 165 to 168 °C
99 | OCc1ccc(-c2ccc(-c3cn([C@H]4CN5CCC4CC5)nn3)cc2)cc1 | 250 °C
100 | CN(C)CCc1nnc2n1-c1ccc(Cl)cc1C(c1ccccc1)NC2 (stereo not given) | 131 to 137 °C
